Laboratory results taken from patent US20200093852A1, “Methods of Treating Ocular Disorders” (priority 2016, published 2020).
Where a name gives a salt, the structure may show the parent alone. Read-outs that look alike come from different tables or passages of the source.

Target: T1, Recombinant human active heparanase (Homo sapiens, UniProt Q9Y251)
T1 construct: Recombinant human active heparanase derived from Chinese hamster ovary cells; purchased R&D Systems; host or cells: Chinese hamster ovary cells
T1 sequence (Q9Y251 158-543 limits assumed): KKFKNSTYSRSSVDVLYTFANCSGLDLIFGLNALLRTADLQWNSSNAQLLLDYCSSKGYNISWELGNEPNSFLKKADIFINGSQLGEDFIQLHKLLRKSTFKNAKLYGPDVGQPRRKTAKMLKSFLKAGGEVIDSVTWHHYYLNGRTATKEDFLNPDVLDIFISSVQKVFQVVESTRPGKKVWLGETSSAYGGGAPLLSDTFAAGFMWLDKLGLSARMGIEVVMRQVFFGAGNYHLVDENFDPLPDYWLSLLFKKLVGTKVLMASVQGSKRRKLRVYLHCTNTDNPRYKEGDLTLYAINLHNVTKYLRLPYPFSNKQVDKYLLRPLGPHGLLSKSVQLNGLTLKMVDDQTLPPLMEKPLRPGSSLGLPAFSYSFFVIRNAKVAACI
T1 sequence (Q9Y251 36-109 limits assumed): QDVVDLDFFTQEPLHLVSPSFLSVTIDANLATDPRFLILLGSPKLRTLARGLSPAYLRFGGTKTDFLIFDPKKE
Experiment: Heparanase enzyme inhibition assay (fondaparinux substrate, WST-1 detection)
Format: biochemical
Description: Recombinant human active heparanase derived from Chinese hamster ovary cells was from R&D Systems. […] The plates were washed three times with PBST, shaken dry, and stored for up to two weeks at 4° C. before use. […] Following initiation of the reaction by addition of fondaparinux, the plate was sealed with adhesive film and incubated at 37° C. for 20-24 h.
Test compounds were dissolved and added to the assay at varying concentrations to calculate the level of inhibition.

[1] = Table 3, read-out: IC50 heparanase inhibition by compounds of Formula 1
[2] = Table 4, read-out: IC50 heparanase inhibition by compounds of Formula 2-4

IC50 [1] [µM]	IC50 [2] [µM]	Structure (SMILES)	also measured
56		COc1cc2nc(-c3ccc4ccccc4c3)nc(NCCc3c[nH]c4ccccc34)c2cc1OC [BT-2057]	
	9	COc1cc2[nH]c(=S)n(CCNC(=O)c3cc4ccccc4[nH]3)c(=N)c2cc1OC [BT-2058]	
	4.2	COc1ccc(-c2ccc3[nH]c(C(=O)NCCn4c(=S)[nH]c5cc(OC)c(OC)cc5c4=N)cc3c2)cn1 [BT-2066]	
	2.8	COc1cc2[nH]c(=S)n(CCNC(=O)c3cc4cc(-c5ccc(C(=O)N6CCN(C)CC6)cc5)ccc4[nH]3)c(=N)c2cc1OC [BT-2068]	
	1	COc1cc2[nH]c(=S)n(CCNC(=O)c3cc4cc(-c5cccnc5)ccc4[nH]3)c(=N)c2cc1OC [BT-2070]	
	3.1	COc1cc2[nH]c(=S)n(CCNC(=O)c3cc4ccc(-c5cccnc5)cc4[nH]3)c(=N)c2cc1OC [BT-2072]	
0.7		COc1cc2nc(-c3cccc4cccnc34)nc(NC3CN(C(=O)c4cc5ccccc5[nH]4)C3)c2cc1OC [BT-2120]	
	31.7	COc1cc2[nH]c(=S)n(CCNC(=O)c3cc(-c4ccccc4)on3)c(=N)c2cc1OC [BT-2133]	
	24.9	COc1cc2nc(SC)n(CCNC(=O)c3cc4ccccc4[nH]3)c(=N)c2cc1OC [BT-2134]	
	28	COc1cc2nc(SCc3cccc(C(F)(F)F)c3)n(CCNC(=O)c3cc4ccc(-c5cccnc5)cc4[nH]3)c(=N)c2cc1OC [BT-2137]	
	5.9	COc1cc2nc(SCc3ccc(C(F)(F)F)cc3)n(CCNC(=O)c3cc4ccc(-c5cccnc5)cc4[nH]3)c(=N)c2cc1OC [BT-2138]	
	2.89	COc1cc2nc(SCc3ccc(C(F)(F)F)cc3)n(CCNC(=O)c3cc4cc(-c5cccnc5)ccc4[nH]3)c(=N)c2cc1OC [BT-2152]	
	5.7	COc1cc2nc(SCc3ccc(OC(F)(F)F)cc3)n(CCNC(=O)c3cc4cc(-c5cccnc5)ccc4[nH]3)c(=N)c2cc1OC [BT-2153]	
4.1		COc1cc2nc(-c3cccc4cccnc34)nc(NCCNC(=O)c3nnc(-c4ccccc4)o3)c2cc1OC [BT-2187]	

More lines, now with the values behind:

Structure (SMILES)	IC50 [1] [µM]	IC50 [2] [µM]	also measured
COc1cc2nc(-c3ccc4[nH]ccc4c3)nc(NCCc3c[nH]c4ccccc34)c2cc1OC [BT-2005]	41		
COc1cc2nc(-c3cncc4ccccc34)nc(NCCc3c[nH]c4ccccc34)c2cc1OC [BT-2007]	92.7		
COc1cc2nc(N3CCN(C(=O)C4COc5ccccc5O4)CC3)nc(N)c2cc1OC (stereo not shown) [BT-2013, doxazosin mesylate, reference compound]	57.5		
COc1cc2nc(-c3cccc4cccnc34)nc(NCCc3c[nH]c4ccccc34)c2cc1OC [BT-2062]	1		
COc1cc2[nH]c(=S)n(CCNC(=O)c3c[nH]c4ccccc34)c(=N)c2cc1OC [BT-2071]		7	
COc1cc2nc(-c3ccccc3CN3CCOCC3)nc(NCCc3c[nH]c4ccccc34)c2cc1OC [BT-2090]	53.6		
COc1cc2[nH]c(=S)n(CCNC(=O)c3n[nH]c4ccccc34)c(=N)c2cc1OC [BT-2100]		37	
COc1cc2[nH]c(=S)n(CCNC(=O)c3c[nH]c4c(O)cccc34)c(=N)c2cc1OC [BT-2103]		10.7	
COc1cc2[nH]c(=S)n(CCNC(=O)c3ccc(-c4ccccc4)[nH]3)c(=N)c2cc1OC [BT-2113]		10.6	
CCOC(=O)CSc1nc2cc(OC)c(OC)cc2c(=N)n1CCNC(=O)c1cc2ccccc2[nH]1 [BT-2136]			IC50 (IC50 heparanase inhibition by compounds of Formula 2-4, Table 4): 26.8 µM
COC(=O)c1ccc2c(S(=O)(=O)NC3CN(c4nc(N)c5cc(OC)c(OC)cc5n4)C3)c[nH]c2c1 [BT-2148]	20.5		
COc1cc2nc(NCCNC(=O)c3cc(-c4ccccc4)on3)nc(N)c2cc1OC [BT-2161]	18.9		
COc1cc2nc(-c3cccc4cccnc34)nc(NCCc3ccccc3)c2cc1OC [BT-2164]			IC50 (IC50 heparanase inhibition by compounds of Formula 1, Table 3): 6.1 µM
COc1cc2nc(N3CC(NC(=O)c4nnc(-c5ccccc5)o4)C3)nc(N)c2cc1OC [BT-2167]	33		
COc1cc2nc(NCCNC(=O)c3nnc(-c4cc5ccccc5[nH]4)o3)nc(N)c2cc1OC [BT-2169]	3.3		
COc1cc2nc(NCCNC(=O)c3nnc(-c4ccccc4)o3)nc(NCCc3ccccc3)c2cc1OC [BT-2170]	55		
COc1cc2nc(-c3ccc4c(c3)OCCO4)nc(NCCc3c[nH]c4ccccc34)c2cc1OC [BT-2171]	14		
COc1cc2nc(NCCNC(=O)c3nnc(-c4cc5ccccc5[nH]4)o3)nc(N)c2cc1OC [BT-2173]	4.3		
COc1cc2nc(NCCNC(=O)c3nnc(-c4c[nH]c5ncccc45)o3)nc(N)c2cc1OC [BT-2177]	21		
COc1cc2nc(-c3cccc4cccnc34)nc(NCCc3ccccn3)c2cc1OC [BT-2178]	11		
COc1cc2nc(NCCc3ccccn3)nc(NCCc3c[nH]c4ccccc34)c2cc1OC [BT-2179]	18		
COc1cc2nc(-c3cccc4cccnc34)nc(NCCNC(=N)N)c2cc1OC [BT-2181]	11		
COc1cc2nc(NCCNC(=N)N)nc(NCCc3c[nH]c4ccccc34)c2cc1OC [BT-2182]	18		
COc1cc2nc(-c3cccc4cccnc34)nc(NCCNS(=O)(=O)c3ccccc3)c2cc1OC [BT-2184]	3.39		
COc1cc2nc(NCCNC(=O)c3nnc(-c4cccc(F)c4)o3)nc(N)c2cc1OC [BT-2185]	22		
COc1cc2nc(NCCNC(=O)c3nnc(-c4ccccc4)s3)nc(N)c2cc1OC [BT-2229]	13.4		
